# Literature values in patent US20180256534A1, “KETAMINE AND […] 450 INHIBITOR COMBINATIONS” (SEQUOIA PHARMACEUTICALS, INC., priority 2015, published 2018).
# Experiments:
# [1] = tested on: patients with major depressive disorders
compound,measurement,setting,value
CNC1(c2ccccc2Cl)CCCCC1=O (centres unmarked) [ketamine],onset of rapid antidepressant effect,[1],two
same,serum concentration at which psychotomimetic symptoms appear,,about 50 ng/ml
